Experiments:
[1] = Bile acid quantification by gas chromatography in HuH-7 cells; format: in vitro ADME, human; conditions: 6 h
Method: In parallel experiments, isolated rat hepatocytes (2×10^7 cells) and HuH-7 cells (2×10^6 cells) were incubated with 50 μM or 100 μM, respectively, of DCA, UDCA or DCA+UDCA for 6 h. Cells were washed 3 times with PBS, pH 7.4, harvested, centrifuged at 800×g for 5 min in a JS-4.0 Beckman rotor (Beckman Instruments, Inc., Schaumburg, Ill.) at 4° C., washed again, and the final pellet was flash-frozen in liquid nitrogen. Cells were then analyzed for intracellular bile acid concentrations by gas chromatography.
Bile acid quantification by gas chromatography. […] Quantification of bile acids was achieved using gas chromatography, by comparing the peak height response of the individual bile acids with the peak height response obtained from the internal standard, nordeoxycholic acid, which was added to each sample prior to bile acid extraction.

primary rat hepatocytes = experiment: DCA-induced apoptosis, Hoechst staining, primary rat hepatocytes; format: cell-based
Source text: Cell culture and preparation of rat primary hepatocytes. Rat primary hepatocytes were isolated from male Sprague-Dawley rats (200-250 g) by collagenase perfusion as described previously (Mariash et al., J. Biol. Chem, 261, 9583-9586 (1986)). Briefly, rats were aneshtesized with phenobarbitol and the livers were perfused with 0.05% collagenase. Hepatocyte suspensions were obained by passing digested livers through 0.125 mm gauze and washing cells in modified Eagles' medium (MEM, Life Technologies, Inc., Grand Island, N.Y.). […] After isolation, hepatocytes were resuspended in William's E medium (Life Technologies, Inc., Grand Island, N.Y.) supplemented with 26 mM sodium bicarbonate, 23 mM HEPES, 0.01 U/ml insulin, 2 mM L-glutamine, 10 nM dexamethasone, 5.5 mM glucose, 100 U/ml penicillin and 100 U/ml streptomycin and then 1.0×10^6 cells were plated on 35×10 mm […] tissue culture dishes (Becton Dickinson Labware, Lincoln Park, N.J.). The cells were maintained at 37° C. in a humidified atmosphere of 5% CO2 for 3 h. Plates were then washed with medium to remove dead cells, and medium containing 10% heat-inactivated FBS (55° C. for 30 min) was added (Atlanta Biologicals, Inc., Norcross, Ga.). Aliquots of 1.0×10^5 human (HuH-7) hepatoma cells were plated on 35×10 mm tissue culture dishes (Becton Dickinson Labware) and maintained at 37° C. in Dulbecco's MEM (Atlanta Biologicals, Inc.) supplemented with 10% FBS, 100 U/ml penicillin and 100 u/ml streptomycin for 3 h prior to incubation with bile acids.
Incubation of cells with bile acids. […] The medium was gently removed at the indicated time points and scored for nonviable cells by trypan blue dye exclusion. […]
(§1) Morphological evaluation of apoptosis. […] Fluorescence was visualized with a Zeiss standard fluorescence microscope (Carl Zeiss, Inc., Thornwood, N.Y.). […] Stained nuclei were scored by blind analysis and categorized according to the condensation and staining characteristics of chromatin. […] Three fields per dish of approximately 500 nuclei were counted; mean values are expressed as the percent of apoptotic nuclei.

HuH-7 cells [2] = experiment: Annexin V-biotin assay (phosphatidylserine externalization); format: cell-based, human; conditions: 100 μM, 6 h
Method: Annexin V-Biotin assay. The annexin V-biotin apoptosis assay was performed on HuH-7 cells according to the manufacturer's recommendations (R & D Systems). […] The chromogenic signal generated from the binding of annexin V to exposed phosphatidylserine moieties was read at 450 nm using a microplate reader (Molecular Devices, Co., Menlo Park, Calif.).

HuH-7 cells [3] = experiment: Okadaic acid-induced apoptosis, HuH-7 cells; format: cell-based, human; conditions: 48 h
Method: Incubation of cells with ethanol, TGF-β1, anti-Fas antibody or okadaic acid. Freshly isolated rat hepatocytes were cultured for 3 h as described above and then incubated with William's E medium supplemented with either 0.5% ethanol, 50 μM UDCA, ethanol plus UDCA, or no addition (control) for 2 h and 4 h. HuH-7 cells were incubated with Dulbecco's medium supplemented with either 1 nM TGF-β1 (R & D Systems, Minneapolis, Minn.), 100 μM UDCA, TGF-β1+UDCA, or no addition (control) for 24 h, 48 h, and 72 h. Hep G2 cells were incubated with Dulbecco's medium supplemented with either 0.5 μg/ml of anti-Fas antibody CH-11 (Upstate Biotechnology, Inc., Lake Placid, N.Y.), 100 μM UDCA, CH-11+UDCA, or no addition for 48 h. Both HuH-7 cells and human osteogenic sarcoma Saos-2 cells were cultured in Dulbecco's medium supplemented with either 50 nM okadaic acid (Boehringer Mannheim Biochemicals, Inc, Indianapolis, Ind.), 100 μM UDCA, okadaic acid+UDCA, or no addition for 48 h. […]
as §1

HeLa cells = experiment: Okadaic acid-induced apoptosis, HeLa cells; format: cell-based, human
Method: (§2) HuH-7 cells were treated with 1 nM TGF-β1, 100 μM of either hyodeoxycholic acid, taurocholic acid, tauroursodeoxycholic acid (Sigma Chemical Co.) or glycoursodeoxycholic acid (Steraloids Inc., Wilton, N.H.), or a combination of TGF-β1 plus the individual bile acids for 72 h. HeLa and Cos-7 cells were incubated with 50 nM okadaic acid, 100 μM of either tauroursodeoxycholic acid or glycoursodeoxycholic acid, or a combination of okadaic acid plus the individual bile acids for 24 h. In the combination groups, cells were pretreated with the bile acid alone for 60 min prior to incuation with TGF-β1 or okadaic acid. In all studies, the medium was gently removed at the indicated times and scored for nonviable cells. The attached cells were fixed for morphologic evaluation of apoptosis.
as §1, with “apoptosis. Morphology was performed as described previously (Oberhammer et al., Proc. Natl. Acad. Sci. USA 89, 5408-5412 (1992)).” for “apoptosis.”

Cos-7 cells = experiment: Okadaic acid-induced apoptosis, Cos-7 cells; format: cell-based, monkey
Method: as §2
as §1, with “apoptosis. Morphology was performed as described previously (Oberhammer et al., Proc. Natl. Acad. Sci. USA 89, 5408-5412 (1992)).” for “apoptosis.”

[4] = coincubation with 100 μM DCA and UDCA
[5] = incubated with 100 μM of the individual bile acid

| Structure (SMILES) | intracellular concentration of the bile acid [1, 4] | intracellular concentration of the bile acid [1, 5] | percentage of apoptotic cells, increase over control (primary rat hepatocytes; 50 μM DCA, 2 h) | optical density at 450 nm (annexin V binding) relative to controls (HuH-7 cells [2]) | cell viability (primary rat hepatocytes; 50 μM DCA + 50 μM UDCA, 6 h) | Inhibition % Apoptosis (primary rat hepatocytes; inducer DCA, hepatocytes, inhibition by UDCA) | reduction of the apoptotic response (HuH-7 cells [3]; 50 nM okadaic acid + 100 μM UDCA) | percent apoptosis (HeLa cells; okadaic acid + UDCA) | percent apoptosis (Cos-7 cells; okadaic acid + UDCA) | apoptosis induced (HuH-7 cells [3]; 50 nM okadaic acid) | percent apoptosis (HeLa cells; okadaic acid alone) | percent apoptosis (Cos-7 cells; okadaic acid alone) |
| --- | --- | --- | --- | --- | --- | --- | --- | --- | --- | --- | --- | --- |
| C[C@H](CCC(=O)O)[C@H]1CC[C@H]2[C@@H]3CC[C@@H]4C[C@H](O)CC[C@]4(C)[C@H]3C[C@H](O)[C@]12C [DCA, deoxycholic acid] | 31.7 ± 15.0 nmol | 28.8±13.3 nmol/10^8cells | 8 fold | 0.27±0.06 | – | – | – | – | – | – | – | – |
| C[C@H](CCC(=O)O)[C@H]1CC[C@H]2[C@@H]3[C@@H](O)C[C@@H]4C[C@H](O)CC[C@]4(C)[C@H]3CC[C@]12C [UDCA, ursodeoxycholic acid] | 45.5 ± 21.5 nmol | 204.7±97.2 nmol/10^8cells | – | 0.08±0.02 | 88.5±4.9% | 90.9 ± 4.6% | > 80% | 20.5±7.1% | 7.3±2.4% | – | – | – |
| C=C1[C@@H](O)[C@@H]2O[C@]3(CC[C@H](/C=C/[C@@H](C)[C@@H]4CC(C)=C[C@@]5(O[C@H](C[C@@](C)(O)C(=O)O)CC[C@H]5O)O4)O3)CC[C@H]2O[C@@H]1[C@@H](O)C[C@H](C)[C@H]1O[C@@]2(CCCCO2)CC[C@H]1C [okadaic acid] | – | – | – | – | – | – | – | – | – | > 30% | 50.0±14.9% | 21.4±2.9% |

Source: patent publication US20030044413A1, “Methods of limiting apoptosis of cells” (Regents of the University of Minnesota, priority 1998, published 2003)
